# PubChem BioAssay (NCI)
#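 Growth conditions: 96-well plates. Treatment: test compound, 48 hours, 5 concentrations. Analysis: linear interpolation between bracketing concentrations; unreached endpoints set to highest concentration. Abbreviation: GI50, concentration required for 50% inhibition of growth. TGI: concentration producing complete growth inhibition.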
# Tests used:
# Experiment in all cases: NCI tumour cell line growth inhibition, 48 h
# K-562 leukemia = test system: K-562 leukemia
# ACHN renal = test system: ACHN renal
# MALME-3M melanoma = test system: MALME-3M melanoma
# HT29 colon = test system: HT29 colon
# MOLT-4 leukemia = test system: MOLT-4 leukemia
# SK-MEL-2 melanoma = test system: SK-MEL-2 melanoma
# SR leukemia = test system: SR leukemia
# MCF7 breast = test system: MCF7 breast
# A549 NSCLC = test system: A549 NSCLC
# EKVX NSCLC = test system: EKVX NSCLC
# CAKI-1 renal = test system: CAKI-1 renal
# HS 578T breast = test system: HS 578T breast
# M14 melanoma = test system: M14 melanoma
# BT-549 breast = test system: BT-549 breast
# NCI-H23 lung = test system: NCI-H23 lung
# HCC-2998 colon = test system: HCC-2998 colon
# KM12 colon = test system: KM12 colon
# T-47D breast = test system: T-47D breast
# TK-10 renal = test system: TK-10 renal
# SN12C renal = test system: SN12C renal
# NCI-H522 lung = test system: NCI-H522 lung
# MDA-MB-231 breast = test system: MDA-MB-231 breast
# IGROV1 ovarian = test system: IGROV1 ovarian
# HOP-62 NSCLC = test system: HOP-62 NSCLC
# CCRF-CEM leukemia = test system: CCRF-CEM leukemia
# SNB-75 CNS = test system: SNB-75 CNS
# COLO 205 colon = test system: COLO 205 colon
# DU-145 prostate = test system: DU-145 prostate
# SF-268 CNS = test system: SF-268 CNS
# SW-620 colon = test system: SW-620 colon
# NCI/ADR-RES ovarian = test system: NCI/ADR-RES ovarian
# NCI-H226 lung = test system: NCI-H226 lung
# PC-3 prostate = test system: PC-3 prostate
# HCT-116 colon = test system: HCT-116 colon
# HL-60(TB) leukemia = test system: HL-60(TB) leukemia
# SNB-19 CNS = test system: SNB-19 CNS
# SK-MEL-28 melanoma = test system: SK-MEL-28 melanoma
# OVCAR-3 ovarian = test system: OVCAR-3 ovarian
# A498 renal = test system: A498 renal
# LOX IMVI melanoma = test system: LOX IMVI melanoma
# RPMI-8226 leukemia = test system: RPMI-8226 leukemia
# UACC-257 melanoma = test system: UACC-257 melanoma
# SK-OV-3 ovarian = test system: SK-OV-3 ovarian
# OVCAR-5 ovarian = test system: OVCAR-5 ovarian
# MDA-MB-435 = test system: MDA-MB-435
# SK-MEL-5 melanoma = test system: SK-MEL-5 melanoma
# OVCAR-4 ovarian = test system: OVCAR-4 ovarian
# UACC-62 melanoma = test system: UACC-62 melanoma
# 786-0 renal = test system: 786-0 renal
# UO-31 renal = test system: UO-31 renal
# NCI-H460 lung = test system: NCI-H460 lung
# HOP-92 NSCLC = test system: HOP-92 NSCLC
# U251 CNS = test system: U251 CNS
# RXF 393 renal = test system: RXF 393 renal
# SF-295 CNS = test system: SF-295 CNS
# HCT-15 colon = test system: HCT-15 colon
# OVCAR-8 ovarian = test system: OVCAR-8 ovarian
# SF-539 CNS = test system: SF-539 CNS
smiles,measurement,setting,value
O=C(Nc1cccc(-n2ccc3c(NC(=O)c4ccccc4)nccc32)c1)Nc1ccc(Cl)c(C(F)(F)F)c1,GI50,K-562 leukemia,386 nM
same,TGI,K-562 leukemia,> 100000 nM
same,GI50,ACHN renal,670 nM
same,TGI,ACHN renal,8480 nM
same,GI50,MALME-3M melanoma,1070 nM
same,TGI,MALME-3M melanoma,47500 nM
same,GI50,HT29 colon,327 nM
same,TGI,HT29 colon,1400 nM
same,GI50,MOLT-4 leukemia,885 nM
same,TGI,MOLT-4 leukemia,> 100000 nM
same,GI50,SK-MEL-2 melanoma,358 nM
same,TGI,SK-MEL-2 melanoma,2620 nM
same,GI50,SR leukemia,367 nM
same,TGI,SR leukemia,> 23300 nM
same,GI50,MCF7 breast,373 nM
same,TGI,MCF7 breast,> 30700 nM
same,GI50,A549 NSCLC,485 nM
same,TGI,A549 NSCLC,> 100000 nM
same,GI50,EKVX NSCLC,633 nM
same,TGI,EKVX NSCLC,> 100000 nM
same,GI50,CAKI-1 renal,718 nM
same,TGI,CAKI-1 renal,9380 nM
same,GI50,HS 578T breast,283 nM
same,TGI,HS 578T breast,3250 nM
same,GI50,M14 melanoma,315 nM
same,TGI,M14 melanoma,1260 nM
same,GI50,BT-549 breast,697 nM
same,TGI,BT-549 breast,10400 nM
same,GI50,NCI-H23 lung,593 nM
same,TGI,NCI-H23 lung,5210 nM
same,GI50,HCC-2998 colon,413 nM
same,TGI,HCC-2998 colon,15200 nM
same,GI50,KM12 colon,343 nM
same,TGI,KM12 colon,2680 nM
same,GI50,T-47D breast,2880 nM
same,TGI,T-47D breast,> 100000 nM
same,GI50,TK-10 renal,1190 nM
same,TGI,TK-10 renal,14600 nM
same,GI50,SN12C renal,820 nM
same,TGI,SN12C renal,> 100000 nM
same,GI50,NCI-H522 lung,211 nM
same,TGI,NCI-H522 lung,642 nM
same,GI50,MDA-MB-231 breast,420 nM
same,TGI,MDA-MB-231 breast,14200 nM
same,GI50,IGROV1 ovarian,662 nM
same,TGI,IGROV1 ovarian,> 100000 nM
same,GI50,HOP-62 NSCLC,736 nM
same,TGI,HOP-62 NSCLC,> 44600 nM
same,GI50,CCRF-CEM leukemia,332 nM
same,TGI,CCRF-CEM leukemia,> 100000 nM
same,GI50,SNB-75 CNS,240 nM
same,TGI,SNB-75 CNS,769 nM
same,GI50,COLO 205 colon,273 nM
same,TGI,COLO 205 colon,737 nM
same,GI50,DU-145 prostate,338 nM
same,TGI,DU-145 prostate,2280 nM
same,GI50,SF-268 CNS,696 nM
same,TGI,SF-268 CNS,> 40000 nM
same,GI50,SW-620 colon,395 nM
same,TGI,SW-620 colon,> 100000 nM
same,GI50,NCI/ADR-RES ovarian,252 nM
same,TGI,NCI/ADR-RES ovarian,667 nM
same,GI50,NCI-H226 lung,865 nM
same,TGI,NCI-H226 lung,> 28500 nM
same,GI50,PC-3 prostate,432 nM
same,TGI,PC-3 prostate,> 36100 nM
same,GI50,HCT-116 colon,372 nM
same,TGI,HCT-116 colon,13700 nM
same,GI50,HL-60(TB) leukemia,332 nM
same,GI50,SNB-19 CNS,494 nM
same,TGI,SNB-19 CNS,> 100000 nM
same,GI50,SK-MEL-28 melanoma,651 nM
same,TGI,SK-MEL-28 melanoma,> 92000 nM
same,GI50,OVCAR-3 ovarian,240 nM
same,TGI,OVCAR-3 ovarian,554 nM
same,GI50,A498 renal,210 nM
same,TGI,A498 renal,1350 nM
same,GI50,LOX IMVI melanoma,649 nM
same,TGI,LOX IMVI melanoma,31600 nM
same,GI50,RPMI-8226 leukemia,424 nM
same,TGI,RPMI-8226 leukemia,7020 nM
same,GI50,UACC-257 melanoma,1870 nM
same,TGI,UACC-257 melanoma,20900 nM
same,GI50,SK-OV-3 ovarian,346 nM
same,TGI,SK-OV-3 ovarian,20600 nM
same,GI50,OVCAR-5 ovarian,482 nM
same,TGI,OVCAR-5 ovarian,> 100000 nM
same,GI50,MDA-MB-435,227 nM
same,TGI,MDA-MB-435,605 nM
same,GI50,SK-MEL-5 melanoma,317 nM
same,TGI,SK-MEL-5 melanoma,1480 nM
same,GI50,OVCAR-4 ovarian,971 nM
same,TGI,OVCAR-4 ovarian,> 100000 nM
same,GI50,UACC-62 melanoma,490 nM
same,TGI,UACC-62 melanoma,20000 nM
same,GI50,786-0 renal,589 nM
same,TGI,786-0 renal,> 100000 nM
same,GI50,UO-31 renal,1350 nM
same,TGI,UO-31 renal,> 100000 nM
same,GI50,NCI-H460 lung,337 nM
same,TGI,NCI-H460 lung,18300 nM
same,GI50,HOP-92 NSCLC,860 nM
same,TGI,HOP-92 NSCLC,5740 nM
same,GI50,U251 CNS,495 nM
same,TGI,U251 CNS,17700 nM
same,GI50,RXF 393 renal,224 nM
same,TGI,RXF 393 renal,693 nM
same,GI50,SF-295 CNS,294 nM
same,TGI,SF-295 CNS,1340 nM
same,GI50,HCT-15 colon,339 nM
same,TGI,HCT-15 colon,14500 nM
same,GI50,OVCAR-8 ovarian,431 nM
same,TGI,OVCAR-8 ovarian,> 39600 nM
same,GI50,SF-539 CNS,308 nM
same,TGI,SF-539 CNS,3980 nM
